Data from publication PMC12214830, “The human RIF1-Long isoform interacts with BRCA1 to promote recombinational fork repair under DNA replication stress” (Nature Communications, 2025).

Legend:
Type in all cases: cell-based, human
micronuclei = micronuclei frequency, HeLa cells; details: HeLa RIF1-L vs RIF1-S or RIF1-L-APKF; HU 4 mM 24 h
Experimental: (§1) For proximity ligation assays and immunofluorescence signal intensity measurements, when comparing between two samples, statistical significance of differences was calculated by Mann-Whitney test for non-parametric distributions using GraphPad Prism software (v.9). When comparing among three or more samples, p values were calculated by Kruskal-Wallis test for non-parametric distributions with Dunn’s multiple comparisons using GraphPad Prism software (v.9). For RIF1 foci formation analysis (Fig. 6B), p values were calculated by two-tailed Student’s t test. For nuclear BRCA1 intensity fold change analyses (Fig. 6C, D), p values were calculated by two-tailed one-sample t test using GraphPad Prism software (v.9). For RAD51 foci formation analyses (Fig. 7B, E and Supplementary Fig. 7B), p values were calculated by chi-square test. For HR Reporter assay analysis (Fig. 7G and Supplementary Fig. 7L), p values were calculated by two-tailed paired Student’s t test. For micronuclei frequency analysis (Fig. 7H), p values were calculated by one-tailed paired Student’s t test. All Student’s t tests were performed with Excel T.TEST function. Chi-square tests were performed with the online Chi-square test calculator at https://www.socscistatistics.com/tests/chisquare2/default2.aspx. Sample number n for all box-and-whisker plots and dot plots are listed in Supplementary Data 1.

[1] = tested on: RIF1-BRCA1 proximity in RPE-1 cells; assay: RIF1-BRCA1 proximity ligation assay, RPE-1 cells
Experimental: Proximity ligation assays were performed using the Duolink In Situ PLA Fluorescence Protocol (Sigma-Aldrich, DUO92101) following the manufacturer’s instruction. Cells were grown on glass coverslips and treated as indicated for specific experiments. Cells were then permeabilized with 0.5% TritonX-100 in PBS for 10 min on ice, and fixed with 3% formaldehyde, 2% sucrose in PBS for 10 min at room temperature (RT). After fixation, coverslips were blocked in 3% BSA in PBS for 1 h at RT and incubated with primary antibodies (anti-RIF1, Bethel laboratories A300-568A, 1:1000 dilution; anti-BRCA1, Santa Cruz Biotechnologies, sc-6954, 1:200 dilution), for 1 h at RT in a humidity chamber. Primary antibodies were then washed off with PLA washing buffer A supplied in the Duolink In Situ PLA kit. Coverslips were next incubated sequentially with PLA Probes (1 h at 37 °C), ligation solution (30 min at 37 °C) and amplification solution (100 min at 37 °C), with washes by washing buffer A in between each step. At the end of incubation, coverslips were washed with washing buffer B supplied in the Duolink In Situ PLA kit. Coverslips were then mounted on glass slides with PLA Mounting medium with DAPI. Images were captured by fluorescence microscopy (Zeiss Axio Imager). PLA foci number in each nucleus were analysed by CellProfiler Software[74] with a custom-made pipeline.
For EdU labelling combined with proximity ligation assay, cells were labelled with 10 µM EdU for 15 min, washed free of EdU and next incubated with medium containing 4 mM HU medium for 4 h. Cells were then permeabilized, fixed and subjected to RIF1-BRCA1 PLA procedures. After all PLA steps, EdU detection was performed following manufacturer’s instructions in the Click-iT EdU Imaging Kit (Invitrogen, C10640).
as §1

GFP-RIF1-L-pp1bs foci = assay: co-localisation of RIF1-L-pp1bs foci with BRCA1, γH2AX, RAD51, HeLa cells; details: HU 4 mM 24 h
Experimental: Cells were grown on glass coverslips and treated as desired. Cells were then permeabilized with 0.5% TritonX-100 in PBS for 7 min on ice, and fixed with 4% w/v formaldehyde solution (Sigma HT5012) for 10 min at room temperature (RT). After fixation, coverslips were blocked with 3% BSA in PBS (RT, 1 h), incubated with primary antibodies (RT, 2 h), washed with PBS three times and incubated with secondary antibodies (RT, 1 h). Primary antibodies used for immunofluorescence include anti-γH2A.X (20E3) (Cell Signalling Technology, 9718. 1:500); anti-RPA32/RPA2 (9H8) (Abcam, ab2175. 1:200); anti-RAD51 (H92) (Santa Cruz Biotechnology, sc-8349. 1:100); anti-BrdU (B44) (BD Biosciences, 347580. 1:100); Coverslips were then mounted on glass slides with mounting medium with DAPI. Images were captured by either standard (Zeiss Axio Imager) or confocal (Zeiss LSM-880) microscopy. Fluorescence signal intensities within each nucleus were analysed by CellProfiler software with custom-made pipelines. Co-localisation analyses were performed with custom-made CellProfiler pipelines. Briefly, nuclei were identified and used to create masks. Nuclear RIF1-L-pp1bs, BRCA1, γH2AX, RAD51 foci were identified as objects using Otsu thresholding. ‘Relate objects’ function (defining RIF1-L-pp1bs foci as parent object and foci of other proteins as children object) was used to measure the percentage of RIF1-L-pp1bs foci co-localised with other proteins.

HCT116 cells = assay: colony formation (clonogenic survival) assay, HCT116 cells
Experimental: For HCT116-derived cells, cells were plated in 6-well plates at 250 cells/well, in triplicate for each drug concentration. Cells were incubated with drugs for 24 h, after which drug-containing medium was replaced with drug-free medium. Seven days later colony counting was performed using a Nikon Eclipse TS100 microscope. For the IR sensitivity test, cells were plated following the same procedure, then irradiated at desired doses and incubated for 7 days before colony counting. Clusters with more than 20 cells were counted as colonies. Mean and standard error of each triplicate was calculated.

RAD51 foci = RAD51 foci formation, HeLa cells; details: 24 h HU 4 mM
Experimental: Cells were grown on glass coverslips and treated as desired. Cells were then permeabilized with 0.5% TritonX-100 in PBS for 7 min on ice, and fixed with 4% w/v formaldehyde solution (Sigma HT5012) for 10 min at room temperature (RT). After fixation, coverslips were blocked with 3% BSA in PBS (RT, 1 h), incubated with primary antibodies (RT, 2 h), washed with PBS three times and incubated with secondary antibodies (RT, 1 h). […] Fluorescence signal intensities within each nucleus were analysed by CellProfiler software with custom-made pipelines. […]
For proximity ligation assays and immunofluorescence signal intensity measurements, when comparing between two samples, statistical significance of differences was calculated by Mann-Whitney test for non-parametric distributions using GraphPad Prism software (v.9). When comparing among three or more samples, p values were calculated by Kruskal-Wallis test for non-parametric distributions with Dunn’s multiple comparisons using GraphPad Prism software (v.9). For RIF1 foci formation analysis (Fig. 6B), p values were calculated by two-tailed Student’s t test. For nuclear BRCA1 intensity fold change analyses (Fig. 6C, D), p values were calculated by two-tailed one-sample t test using GraphPad Prism software (v.9). For RAD51 foci formation analyses (Fig. 7B, E and Supplementary Fig. 7B), p values were calculated by chi-square test. […]

[2] = Fig S4F (repeat of 4E), 0h post-HU
[3] = Fig S4F (repeat of 4E), 4h post-HU
[4] = Fig S4F (repeat of 4E), 8h post-HU

NC(=O)NO [HU, hydroxyurea]
frequency of micronuclei following HU (micronuclei): RIF1-L cells exhibited a lower frequency of micronuclei following HU treatment than RIF1-S or RIF1-L-APKF cells
RIF1-BRCA1 proximity signal after HU removal ([1]; 4 h after HU removal): retained
RIF1-BRCA1 proximity signal after HU removal ([1]; 8 h post-release): declined to baseline level
RIF1-BRCA1 PLA foci per nucleus, mean ([1]; Fig 3B, HU 4 mM 3 h): 1.331
RIF1-BRCA1 PLA foci per nucleus, median ([1]; Fig 3B, HU 4 mM 3 h): 1
RIF1-BRCA1 PLA foci per nucleus, mean ([1]; Fig 3B, HU 24 h): 3.899
RIF1-BRCA1 PLA foci per nucleus, median ([1]; Fig 3B, HU 24 h): 3
RIF1-BRCA1 PLA foci per nucleus, mean ([1]; Fig 3C, HU 4 mM 24 h): 2.024
RIF1-BRCA1 PLA foci per nucleus, median ([1]; Fig 3C, HU 4 mM 24 h): 1
RIF1-BRCA1 PLA foci per nucleus, mean ([1]; Fig 4E, 0h post-HU): 1.913
RIF1-BRCA1 PLA foci per nucleus, median ([1]; Fig 4E, 0h post-HU): 1, 1, 1, 1
RIF1-BRCA1 PLA foci per nucleus, mean ([1]; Fig 4E, 4h post-HU): 1.712
RIF1-BRCA1 PLA foci per nucleus, median ([1]; Fig 4E, 4h post-HU): 1, 1, 1, 1
RIF1-BRCA1 PLA foci per nucleus, mean ([1]; Fig 4E, 8h post-HU): 0.946
RIF1-BRCA1 PLA foci per nucleus, median ([1]; Fig 4E, 8h post-HU): 1, 1, 1, 1
RIF1-BRCA1 PLA foci per nucleus, mean ([1]; Fig 4F, HU 4 mM 24 h): 7.107
RIF1-BRCA1 PLA foci per nucleus, median ([1]; Fig 4F, HU 4 mM 24 h): 5
RIF1-BRCA1 PLA foci per nucleus, mean [1, 2]: 0.786
RIF1-BRCA1 PLA foci per nucleus, median [1, 2]: 0, 0, 0, 0
RIF1-BRCA1 PLA foci per nucleus, mean [1, 3]: 0.617
RIF1-BRCA1 PLA foci per nucleus, median [1, 3]: 0, 0, 0, 0
RIF1-BRCA1 PLA foci per nucleus, mean [1, 4]: 0.355
RIF1-BRCA1 PLA foci per nucleus, median [1, 4]: 0, 0, 0, 0
RIF1-BRCA1 PLA foci per nucleus, mean ([1]; Fig S4G (repeat), HU 4mM 24hr): 7.828
RIF1-BRCA1 PLA foci per nucleus, median ([1]; Fig S4G (repeat), HU 4mM 24hr): 6
RIF1-BRCA1 PLA foci per nucleus, mean ([1]; Fig S4J, HU 4mM 24hr): 7.107
RIF1-BRCA1 PLA foci per nucleus, median ([1]; Fig S4J, HU 4mM 24hr): 0, 5, 5
RIF1-BRCA1 PLA foci ([1]; HU 3 h): observable
RIF1-BRCA1 PLA foci ([1]; HU 24 h): significantly increased
RIF1-L-pp1bs foci co-localised with RAD51 and BRCA1 (GFP-RIF1-L-pp1bs foci): ~ 20%
RIF1-L-pp1bs foci colocalised with both BRCA1 and γH2AX (GFP-RIF1-L-pp1bs foci): Approximately 40%
RIF1-L-pp1bs foci overlapping BRCA1 signal (GFP-RIF1-L-pp1bs foci): 50–60%
RIF1-L-pp1bs foci overlapping γH2AX foci (GFP-RIF1-L-pp1bs foci): ~ 50%
colony survival, RIF1-L cells (HCT116 cells; HCT116 expressing only RIF1-L, versus RIF1-WT): RIF1-L conferred resistance comparable to RIF1-WT
colony survival, RIF1-S cells (HCT116 cells; HCT116 expressing only RIF1-S, versus RIF1-KO): exhibited hypersensitivity to these drugs similar to RIF1-KO cells
proportion of cells containing RAD51 foci (RAD51 foci): greatly increased
